Where two headings read alike, the source gives them in different places.

Series [1] can be described thus: Pharmacokinetics of LOS and EXP3174 in the hypertension rat model (LC-MS). In kind it is in vivo, Wistar rats. The settings on record: hypertensive rats (L-NAME); for AUC(0-inf) / AUC(0-t) / Cmax / MRT / Tmax / half-life: Wistar, rat, plasma, po, 10 mg/kg/day. The procedure: All samples were centrifuged at 3,000 rpm for 10 min, and the upper plasma was collected for Liquid Chromatography Mass Spectrometry (LC-MS) analysis. The LOS and EXP3174 in rat serum were quantitatively determined by a validated LC-MS method. The LC-MS system contained a Q/Exactive Quadrupole/Electrostatic Field Track Well High Resolution Mass Spectrometer (Thermo Fisher Scientific, Waltham, MA, United States) and a Dionex Ultimate 3,000 High-pressure liquid chromatography (Dionex, Subsidiary, CA, United States) system equipped with an electro-spray ionization source. […] The mobile phase included 0.1% formic acid aqueous solution (C) and acetonitrile (D) at a flow rate of 0.3 ml/min. The proportion of phase B in the mobile phase was adjusted from 40 to 5% at 0-2 min, 5% at 2-4 min, 40% at 4-5 min. The parameters of mass spectrometry for each analyte were shown in Supplementary Figure S1 . The collected data were analyzed through Xcalibur 4.1 software. The serum drug concentration data in each sample were obtained by calculation. The pharmacokinetic parameters corresponding to each rat were calculated using the “non-compartmental model” of the “PK solution 2.0TM (Summit Research Services, United States)” pharmacokinetic software. The half-life (t 1/2 ), peak drug concentration (C max), peak time (T max), the area under the plasma concentration-time curve (AUC) from time zero to the time of the last measurable plasma concentration (AUC 0-t ), AUC from time zero to infinity (AUC 0-∞ ), mean residence time (MRT), clearance (CL), apparent volume of distribution (V d ), and relative bioavailability (Frel) were calculated.

Series [2] in a line: Pharmacokinetics of LOS and EXP3174 in non-hypertensive Wistar rats (LC-MS). The conditions noted are these: rat, serum, po; Wistar rats without L-NAME; LOS 10 mg/kg/d ig alone (BLANK + LOS group). In kind it is in vivo. The procedure: All groups were treated for 2 weeks and the blood collection time and methods of serum management were the same as those mentioned above. The LOS and EXP3174 in rat serum were quantitatively determined by a validated LC-MS method. The LC-MS system contained a Q/Exactive Quadrupole/Electrostatic Field Track Well High Resolution Mass Spectrometer (Thermo Fisher Scientific, Waltham, MA, United States) and a Dionex Ultimate 3,000 High-pressure liquid chromatography (Dionex, Subsidiary, CA, United States) system equipped with an electro-spray ionization source. […] The mobile phase included 0.1% formic acid aqueous solution (C) and acetonitrile (D) at a flow rate of 0.3 ml/min. The proportion of phase B in the mobile phase was adjusted from 40 to 5% at 0–2 min, 5% at 2–4 min, 40% at 4–5 min. The parameters of mass spectrometry for each analyte were shown in Supplementary Figure S1 . The collected data were analyzed through Xcalibur 4.1 software. The serum drug concentration data in each sample were obtained by calculation. The pharmacokinetic parameters corresponding to each rat were calculated using the “non-compartmental model” of the “PK solution 2.0TM (Summit Research Services, United States)” pharmacokinetic software. The half-life (t 1/2 ), peak drug concentration (C max), peak time (T max), the area under the plasma concentration-time curve (AUC) from time zero to the time of the last measurable plasma concentration (AUC 0-t ), AUC from time zero to infinity (AUC 0-∞ ), mean residence time (MRT), clearance (CL), apparent volume of distribution (V d ), and relative bioavailability (Frel) were calculated.

On the set-up of series [3]: method as in Sica et al., 2005; Burnier and Wuerzner, 2011. The conditions noted are these: ref Sica et al., 2005; Burnier and Wuerzner, 2011; cited from earlier work.
For series [4], the system named is CYP3A4. More on the design: method as in Li et al. (2012). The conditions noted are these: Rat hepatic microsomes; ref Li et al. (2012); cited from earlier work.
Series [5] has as its system CYP3A4. The settings on record: Sprague-Dawley rats; ref Qin et al. (2013); cited from earlier work.
Series [6] relates to P-gp. The settings on record: Sprague-Dawley rats; ref Qin et al. (2013); cited from earlier work.
In series [7] the target is CYP3A4 (Homo sapiens, UniProt P08684). More on the design: method as in Wan et al. (2010). The settings on record: HepG2; ref Wan et al. (2010); cited from earlier work.
Series [8] has as its system P-gp. More on the design: method as in Wan et al. (2010). The settings on record: HepG2; ref Wan et al. (2010); cited from earlier work.
Setting [9] is: LOS 10 mg/kg/d ig + SMI 2 ml/kg/d tail vein (SMI-L+LOS group).
The mark [10] stands for this setting: LOS 10 mg/kg/d ig + SMI 4 ml/kg/d tail vein (SMI-M+LOS group).
[11] abbreviates: LOS 10 mg/kg/d ig + SMI 6 ml/kg/d tail vein (SMI-H+LOS group).
Where [12] appears, read: LOS 10 mg/kg/d ig alone (LOS group).

Chain of CYP3A4 (Homo sapiens, UniProt P08684) (P08684 whole entry): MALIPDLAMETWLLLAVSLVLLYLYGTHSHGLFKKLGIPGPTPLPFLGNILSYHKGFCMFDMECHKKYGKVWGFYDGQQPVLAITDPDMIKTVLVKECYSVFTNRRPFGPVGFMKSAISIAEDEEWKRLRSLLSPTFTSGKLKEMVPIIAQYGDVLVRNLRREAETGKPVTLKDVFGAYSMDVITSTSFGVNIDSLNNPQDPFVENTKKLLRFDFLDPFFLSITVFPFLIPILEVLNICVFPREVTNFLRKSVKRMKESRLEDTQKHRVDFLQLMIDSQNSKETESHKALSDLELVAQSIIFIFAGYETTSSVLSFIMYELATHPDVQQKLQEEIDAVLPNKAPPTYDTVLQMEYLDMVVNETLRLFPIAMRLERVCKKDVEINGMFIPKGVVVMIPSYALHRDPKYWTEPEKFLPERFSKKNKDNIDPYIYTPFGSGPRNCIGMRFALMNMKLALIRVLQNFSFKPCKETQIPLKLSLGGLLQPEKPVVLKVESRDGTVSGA

With `CCCCc1nc(Cl)c(C(=O)O)n1Cc1ccc(-c2ccccc2-c2nn[nH]n2)cc1` [EXP3174, losartan carboxylic acid], in series [1] (setting [9]), the AUC(0-inf) (usually the area under the concentration-time curve extrapolated to infinity) turned out to be 1280 ng·h/mL; the area under the curve AUC(0-t) (as a rule, exposure summed from dosing to a finite time, without extrapolation to infinity) stood at 1180 ng·h/mL; the peak concentration (Cmax) (in general, the highest concentration seen after dosing) worked out at 133 ± 42.8 ng/mL; the MRT (commonly a mean duration of stay, worked out from the concentration-time curve) is 9.5 ± 1.8 h. In series [1] (setting [9]), the time of peak concentration (Tmax) (in general, the time from dosing to the highest level) amounted to 4.8 ± 1.1 h; the half-life (as a rule, the time needed for the level to fall by half in the phase considered) is 6.67 ± 1.34 h; the CL is reported as 23,408.16 ± 11,602.26 ml/h/kg; the Vd is 226,676.52 ± 129,635.61 ml/kg. Moreover, in series [1] (setting [10]), the area under the curve AUC(0-inf) amounted to 1500 ng·h/mL, the AUC(0-t) was 1380 ng·h/mL, the highest concentration (Cmax) was 123 ± 44.6 ng/mL and the mean residence time (MRT) amounted to 11.4 ± 1.62 h. Also, in series [1] (setting [10]), the time to peak (Tmax) amounted to 5.33 ± 1.03 h, the half-life was 6.59 ± 1.44 h, the CL is 17,618.36 ± 4346.02 ml/h/kg and the Vd is reported as 159,469.35 ± 65,037.84 ml/kg. For the same compound, in series [1] (setting [11]), the AUC(0-inf) worked out at 1380 ng·h/mL, the Cmax turned out to be 81.2 ± 8.14 ng/mL, the MRT worked out at 13.3 ± 2.66 h and the Tmax worked out at 6 ± 1.26 h. In addition, in series [1] (setting [11]), the half-life is 7.31 ± 1.62 h, the CL is recorded as 18,577.68 ± 3,249.85 ml/h/kg and the Vd was 188,473.60 ± 36,260.16 ml/kg. In series [1] (setting [12]), this compound displayed an AUC(0-inf) of 1300 ng·h/mL, an AUC(0-t) of 1160 ng·h/mL, a Cmax of 119 ± 36.4 ng/mL and an MRT of 11.2 ± 2.34 h. Moreover, in series [1] (setting [12]), the Tmax is 4.33 ± 0.82 h, the half-life was 6.76 ± 1.45 h, the CL is 19,842.49 ± 3,602.55 ml/h/kg and the Vd was 175,713.60 ± 57,295.84 ml/kg. Moreover, in series [2], the area under the curve AUC(0-inf) was 1170 ng·h/mL, the AUC(0-t) was determined as 1020 ng·h/mL, the peak concentration (Cmax) worked out at 115 ± 12.1 ng/mL and the MRT worked out at 9.77 ± 0.26 h. Also, in series [2], the time to peak (Tmax) was found to be 5.33 ± 1.03 h and the half-life is 6.5 ± 1.52 h. Further, in series [3], the “antihypertensive potency relative to losartan” value is 10–40 times.
Consider `COc1cc2c(c(OC)c1OC)-c1c(cc(OC)c(OC)c1OC)C[C@H](C)[C@H](C)C2` [Schisandrin A], for which, in series [4], the “Effects on CYP3A4” value is “Inhibition”.
Consider `COc1cc2c(c(OC)c1OC)-c1c(cc(OC)c(OC)c1OC)C[C@](C)(O)[C@@H](C)C2` [schisandrol A], for which the “Effects on CYP3A4” value in series [5] and in series [7] was “Inhibition” throughout. Moreover, the “Effects on P-Gp” value in series [6] and in series [8] was “Inhibition” in each case.

The record behind these values is publication PMC9065348 (Frontiers in Pharmacology, 2022).
